Assay results taken from ChEMBL document CHEMBL1145997, “Understanding the antitumor activity of novel hydroxysemicarbazide derivatives as ribonucleotide reductase inhibitors using CoMFA and CoMSIA” (J Med Chem, 2003).

System: L1210
Test: In vitro antitumor activity against L1210 cancer cell line
Assay type: functional, cell-based
Settings: Mus musculus

IC50: 82 µM
Compound: O=C(/N=C\NNC(=O)NO)NO
